Several values for one entry are separate records, joined by “and”; a condition that tells them apart may be missing. Equal entries are not always repeated.
System: RPMI-8226 cells
Assay: Gene expression profiling, NanoString nCounter PanCancer Pathways Panel, ROSALIND analysis
Type: cell-based, human
Details: RPMI-8226, TCH-165 samples 1-3
Description: RPMI-8226 cells were treated with vehicle or TCH-165 (10 μM) for 4 h. Total RNA was obtained using the mirVana miRNA Isolation Kit, with phenol (Thermofisher Scientific; AM1560; Waltham, MA, USA). Total RNA was quantified by Qubit (Thermofisher Scientific; Q32855; Waltham, MA, USA). and gene expression was evaluated against the nCounter® PanCancer Pathways Panel^TM according to the standard NanoString protocol.
Data were analyzed by ROSALIND® [36] with a hyperscale architecture developed by ROSALIND, Inc. (San Diego, CA, USA). Normalization, fold changes and p-values were calculated using criteria provided by NanoString. ROSALIND follows the nCounter® Advanced Analysis protocol of dividing counts within a lane by the geometric mean of the normalizer probes from the same lane. Housekeeping probes to be used for normalization are selected based on the geNorm algorithm, as implemented in the NormqPCR R library. Fold changes and p-values are calculated using the fast method as described in the nCounter Advanced Analysis 2.0 User Manual. The p-value adjustment is performed using the Benjamini–Hochberg method of estimating false discovery rates (FDR). Clustering of genes for the final heatmap of differentially expressed genes was done using the PAM (Partitioning Around Medoids) method using the fpc R library. Hypergeometric distribution was used to analyze the enrichment of pathways, gene ontology, domain structure and other ontologies. The topGO R library was used to determine local similarities and dependencies between GO terms in order to perform Elim pruning correction. Several database sources were referenced for enrichment analysis, including Interpro [40], NCBI [41], MSigDB [42, 43], REACTOME [44], WikiPathways. Enrichment was calculated relative to a set of background genes relevant to the experiment.

CCOC(=O)[C@]1(c2ccccc2)N=C(c2ccc(OC)cc2)N(Cc2ccccc2)[C@@H]1c1ccc(NCc2ccccc2)cc1 [TCH-165]
RPA3 normalized gene expression: 6.234 and 6.077 and 5.975 | RPS6KA5 normalized gene expression: 8.162 and 8.249 and 8.109 | RPS6KA6 normalized gene expression: 4.308 and 4.154 and 4.653 | RPS27A normalized gene expression: 16.3114 and 16.3789 and 16.3612 | RRAS2 normalized gene expression: 6.59 and 6.242 and 6.0682 | RUNX1T1 normalized gene expression: 4.649 and 5.3768 and 5.0682 | RUNX1 normalized gene expression: 7.156 and 7.154 and 7.31 | RXRG normalized gene expression: 5.758 and 5.569 and 5.1271 | SETBP1 normalized gene expression: 9.152 and 8.96 and 8.955 | SETD2 normalized gene expression: 9.224 and 9.1619 and 9.096 | SF3B1 normalized gene expression: 10.9301 and 10.7965 and 10.7773 | SFN normalized gene expression: 7.723 and 7.476 and 7.668 | SFRP1 normalized gene expression: 5.401 and 5.0613 and 4.731 | SFRP2 normalized gene expression: 4.723 and 4.427 and 4.613 | SFRP4 normalized gene expression: 1.986 and 2.3768 and 2.483 | SGK2 normalized gene expression: 4.401 and 4.324 and 4.0682 | SHC1 normalized gene expression: 10.583 and 10.7262 and 10.7216 | SHC2 normalized gene expression: 3.723 and 3.962 and 3.653 | SHC3 normalized gene expression: 6.308 and 6.364 and 6.251 | SIN3A normalized gene expression: 9.8539 and 9.738 and 9.646 | SIRT4 normalized gene expression: 5.156 and 4.739 and 5.238 | SIX1 normalized gene expression: 3.571 and 3.3768 and 4.1271 | SKP1 normalized gene expression: 12.8613 and 12.7826 and 12.7408 | SKP2 normalized gene expression: 8.831 and 8.717 and 8.705 | SMAD2 normalized gene expression: 9.453 and 9.37 and 9.493 | SMAD3 normalized gene expression: 6.723 and 6.646 and 6.759 | SMAD4 normalized gene expression: 9.445 and 9.475 and 9.381 | SMAD9 normalized gene expression: 4.208 and 3.657 and 4.238 | SMARCA4 normalized gene expression: 10.8723 and 10.9931 and 10.958 | SMARCB1 normalized gene expression: 9.431 and 9.4165 and 9.399 | SMC1A normalized gene expression: 10.4464 and 10.4079 and 10.3505 | SMC1B normalized gene expression: 4.401 and 3.739 and 3.731 | SMC3 normalized gene expression: 10.9533 and 10.9237 and 10.9519 | SMO normalized gene expression: 5.986 and 5.657 and 5.341 | SOCS1 normalized gene expression: 6.892 and 6.769 and 6.683 | SOCS2 normalized gene expression: 5.955 and 5.476 and 5.5707 | SOCS3 normalized gene expression: 5.827 and 5.351 and 5.613 | SOS1 normalized gene expression: 8.45 and 8.321 and 8.235 | SOS2 normalized gene expression: 7.434 and 7.338 and 7.36 | SOST normalized gene expression: 3.86 and 3.3768 and 3.805 | SOX9 normalized gene expression: 5.044 and 5.093 and 4.731 | SP1 normalized gene expression: 7.695 and 7.694 and 7.736 | SPOP normalized gene expression: 6.308 and 6.324 and 6.0531 | SPP1 normalized gene expression: 11.9193 and 11.8738 and 11.9244 | SPRY1 normalized gene expression: 4.308 and 4.154 and 4.184 | SPRY2 normalized gene expression: 5.793 and 5.154 and 5.0682 | SRSF2 normalized gene expression: 10.5286 and 10.321 and 10.2662 | SSX1 normalized gene expression: 4.571 and 4.614 and 4.341 | STAG2 normalized gene expression: 11.0854 and 11.0452 and 11.0734 | STAT1 normalized gene expression: 8.92 and 8.846 and 9.0757 | STAT3 normalized gene expression: 9.132 and 9.111 and 9.089 | STAT4 normalized gene expression: 7.259 and 7.045 and 7.149 | STK11 normalized gene expression: 7.868 and 7.592 and 7.623 | STMN1 normalized gene expression: 12.569 and 12.5392 and 12.5363 | SYK normalized gene expression: 10.2633 and 10.2568 and 10.1565 | TCF3 normalized gene expression: 9.548 and 9.673 and 9.547 | TCL1B normalized gene expression: 2.986 and 2.569 and 2.943 | TET2 normalized gene expression: 7.142 and 7.021 and 6.918 | TFDP1 normalized gene expression: 10.7659 and 10.7019 and 10.7109 | TGFB1 normalized gene expression: 8.78 and 8.675 and 8.641 | TGFB2 normalized gene expression: 3.86 and 3.27 and 3.943 | TGFB3 normalized gene expression: 4.986 and 4.891 and 4.483 | TGFBR2 normalized gene expression: 7.169 and 7.004 and 6.787 | THBS1 normalized gene expression: 5.445 and 4.927 and 4.769 | THBS4 normalized gene expression: 3.208 and 2.569 and 3.291 | TIAM1 normalized gene expression: 5.793 and 5.476 and 5.414 | TLR2 normalized gene expression: 6.355 and 5.855 and 5.876 | TLR4 normalized gene expression: 8.52 and 8.18 and 8.197 | TLX1 normalized gene expression: 3.86 and 4.427 and 4.1271 | TMPRSS2 normalized gene expression: 6.182 and 6.093 and 6.1126 | TNC normalized gene expression: 4.723 and 4.7789 and 4.39 | TNF normalized gene expression: 4.986 and 4.817 and 5.0682 | TNFAIP3 normalized gene expression: 7.658 and 7.488 and 7.528 | TNFRSF10A normalized gene expression: 7.986 and 7.827 and 7.893 | TNFRSF10B normalized gene expression: 6.61 and 6.5 and 6.602 | TNFRSF10C normalized gene expression: 4.101 and 3.891 and 3.943 | TNFRSF10D normalized gene expression: 6.827 and 6.476 and 6.461 | TNFSF10 normalized gene expression: 8.202 and 8.1619 and 8.225 | TNR normalized gene expression: 5.686 and 5.297 and 5.5707 | TP53 normalized gene expression: 10.0117 and 9.981 and 9.929 | TPO normalized gene expression: 4.924 and 5.184 and 5.156 | TSC1 normalized gene expression: 8.714 and 8.273 and 8.399 | TSHR normalized gene expression: 4.649 and 4.476 and 4.39 | TSPAN7 normalized gene expression: 6.776 and 6.891 and 6.539 | TTK normalized gene expression: 9.89 and 9.8374 and 9.804 | U2AF1 normalized gene expression: 12.4063 and 12.4515 and 12.4562 | UBB normalized gene expression: 12.5802 and 12.4733 and 12.4875 | UBE2T normalized gene expression: 10.5402 and 10.5496 and 10.5687 | UTY normalized gene expression: 3.86 and 4.093 and 4.0682 | VEGFA normalized gene expression: 10.7951 and 10.7989 and 10.8309
